A short description of data set [1]: Mouse locomotor activity box. The format is in vivo. Conditions: mice, 150 mg/kg QD for 5 days; for distance traveled / stereotypic horizontal activity / vertical rearing activity: vs controls. On the procedure:
BKIs –1770, -1841, and -1708 were tested in the mouse locomotor activity box to screen for possible neurological issues (Fig. S7). All three BKIs were dosed at 150 mg/kg QD for 5 days.
(§1) Methods for synthesis of BKIs ([17], [23]), efficacy against Nluc expressing C. parvum in infected adult IFN-γ KO mice ([6], [9]), in vivo mouse GI tract tissue exposure by LC/MS-MS analysis ([18], [28]), PK analysis of mouse plasma and brain tissue BKI concentrations by LC/MS-MS analysis ([29]), in vivo rat and dog cardiotoxicity screen ([30]), efficacy against IOWA-II strain C. parvum in infected neonatal calves ([13]), efficacy against C. hominis in infected piglets ([12]), in vitro inhibition of C. parvum CDPK1 (CpCDPK1) and human tyrosine kinase SRC (HsSRC) activity ([31]), in vitro inhibition of hERG ([32]), Nluc expressing C. parvum in vitro growth inhibition in infected HCT-8 cells ([6]), in vitro cytotoxicity in CRL-8155 and HepG2 cells ([29]), and mouse locomotor activity box ([33], [34]) have all been previously described. Analytes were measured by LC/MS-MS on an Acquity ultra performance liquid chromatography (UPLC) system in tandem with a Xevo TQ-S mass spectrometer (Waters, Milford, MA, USA).

Data set [2] concerns C. parvum. Briefly: Efficacy in neonatal calves infected with C. parvum. In kind it is in vivo. On the procedure: (§2) There were also improvements in the treated calves in both fecal volume and consistency, urine output, weight gain and daily clinical scores compared to control calves (Fig. S3). […] Fecal volume, fecal consistency, and clinical scores were improved for all treatment groups compared to controls, but these improvements were delayed for the 1 mg/kg group.
Total oocyst excretion determined by RT-PCR concentration and total by fecal weight shed per day. (A) Oocyst excretion per day after treatment with BKI-1770. […] (C) Oocyst excretion per day after treatment with BKI-1841. (D) Cumulative total oocyst excretion for days 3 through 10 after treatment with BKI-1841. […] BKI-1841 BID treatments were administered on days 2 through 4 and QD treatments were administered on days 2 through 5. […] QD = once daily, BID = twice daily.
(§3) BKI-1841 was dosed at 5, 2, and 1 mg/kg BID for 3 days and 2 mg/kg QD for 4 days (Fig. 5, Fig. S4). […] Urine output was consistent for all groups, including controls, and fecal volume and consistency were improved for all groups over controls (Fig. S4). […] This occurred to some degree with all dosing regimens, developing with the fewest doses at 5 mg/kg BID. With the lowest dose of 1 mg/kg BID, the onset of dropped pasterns began after the third dose and continued until self-resolving 2 days after dosing concluded. All signs of dropped pasterns were gone by the end of the experiment on day 10 postinfection.
as §1

Data set [3] in a line: Plasma concentrations and clinical toxicity signs in treated neonatal calves. As to conditions: for Cmax: bovine, plasma. In kind it is in vivo, calf. On the procedure:
as §2, §3

Data set [4] can be described thus: Plasma levels and toxicity signs in treated piglets. In kind it is in vivo, piglet. Conditions: for Cmax: pig, plasma, 5 mg/kg, 5 mg/kg BID.
Data set [5] concerns HepG2 cells. Further details: method as in PMID 30830766. Conditions: cited from earlier work.
The nature of data set [6]: Multidose mouse toxicity, tibial epiphyseal growth plate. As to conditions: for gross signs of toxicity / width of the tibia epiphyseal growth plate vs vehicle controls: 3 week old mice, oral 150 mg/kg QD for 7 days; for width of the tibia epiphyseal growth plate vs vehicle controls: n = 3. The format is in vivo. On the procedure: The recurring presence of toxicity in calves manifesting as dropped pasterns, as well as the observations of bone toxicity in rats, led to the exploration of possible bone toxicity screening in mice to allow for screening prior to dosing in larger animals. To test for effects to the growth plate in developing bones, 3 week old mice were dosed for 7 days QD and euthanized 24 h after the final dose. The right and left tibia were dissected from each mouse and stained with AgNO3 to visualize the growth plate and measurements across the widths compared to vehicle-only treated controls. […] The remaining two mice for this treatment were immediately euthanized and their tibias extracted early on day 4.
Mouse toxicity testing and evaluation of the tibial epiphyseal plate have been previously described ([18], [38]) and were performed with some modifications. Briefly, 3 week old BALB/c mice (n = 3) were dosed orally once daily for 7 days. Mice were euthanized along with vehicle treated controls by cardiac puncture for collection of blood for analysis. Necropsy, obtaining blood for serum chemistries, histology of organs (brain, heart, lungs, spleen, liver, stomach, small intestine, large intestine and kidney), and removal of tibias were performed within 24 h of the final dose. Examination of organ histology included routine H&E and Oil-Red O (lipid)-stained organs from the treated mice and a set of untreated matched controls. Pathological examination was performed by a board certified pathologist who was blinded to the treatment and control group identities. Tibias were removed and immediately placed in dH2O for a minimum of 1 h. Using a fresh number 11 scalpel blade, a quick sagittal cut was made across the femoral condyle opposite the fibula, and a second cut was made across the second femoral condyle separating the fibula and tibia. The tibias were then immersed in acetone for 1 h to dehydrate. Dehydrated tibias were washed in dH2O for 2 min, then soaked in 1.5% AgNO3 for 1 min in a container protected from light. Tibias were then rinsed in dH2O for 2 min and exposed to strong light for 10 sec. Stained tibias were stored in 70% ethanol for >10 min before examining the growth plates at ×40 magnification using an Amscope stereo microscope with a mounted camera. Photos were taken using the Amscope image capture software. A calibration slide was used to establish a μm to pixel ratio of 1:1.184. Using the Measurement Tool, 10 measurements were taken across each epiphyseal plate by orienting the cursor at right angles from the growth plate borders by two different researchers (one set unblinded; one set blinded) and average width was assigned to each tibia from each animal.

A short description of data set [7]: Pharmacokinetics in mice (plasma, brain, GI tissues) by LC/MS-MS. In kind it is in vivo, mouse. As to conditions: for Kp: mouse, brain, read-out: brain penetration (brain tissue to plasma area-under-the-curve). On the procedure: For evaluation of its suitability for in vivo dosing, BKI-1841 was also tested in mice for plasma exposure after a single dose (Fig. 2). […] A dose of 25 mg/kg BKI-1841 was used to evaluate brain penetration over 4 h using the same method (Fig. 2).
as §1

Each structure is given as a SMILES string. Like-named read-outs stand apart in the source and are kept apart here. Some results are limits rather than exact numbers.

For the molecule `CCOc1ccc2cc(-c3nn(C(C)(C)CCO)c(N)c3C(N)=O)ccc2c1` [BKI-1770], in data set [1], the “overall effect on locomotor activity” value is given as “depression in movement”, the distance traveled result is given as “significant (P < 0.05) decrease in distance traveled from 20 to 60 min”, the stereotypic horizontal activity entry was “increased horizontal activity from 0 to 40 min” and the vertical rearing activity entry is “decreased vertical activity throughout the study”. This molecule also displayed a total oocysts excreted in data set [2] (5 mg/kg BID for 5 days (n = 5), days 3 to 10 postinfection, control 1.62E10) of 2.58E9 oocysts. The same molecule returned a minimal efficacious dose in data set [2] (BID) of 3 mg/kg. Moreover, the “total oocyst excretion per day vs controls” value in data set [2] (all dosed groups (5, 3, 2, 1 mg/kg BID for 5 days)) is on record as “significant differences”. In addition, the “hyperflexion of the limbs (dropped pasterns)” value in data set [3] (5 mg/kg BID for 5 days) is reported as “observed in two of the 5 mg/kg calves”. Besides, the bloody diarrhea result in data set [3] (5 mg/kg BID, one calf) is “some bloody diarrhea”. The Cmax in data set [3] (3 mg/kg BID, at 4 h post dose 1, read-out: plasma observed Cmax) amounted to 3400 ± 60 nM. In addition, the Cmax in data set [3] (5 mg/kg BID, at 4 h post dose 5, read-out: plasma observed maximum concentration (Cmax)) worked out at 10300 ± 5400 nM. In addition, in data set [4] (5 mg/kg BID for 5 or 8 days), the “visible signs of toxicity” value is “no visible signs of toxicity”. For the same molecule, the Cmax in data set [4] (at 2 h post dose 5, read-out: plasma observed Cmax) was determined as 2100 ± 1400 nM. Moreover, in data set [4] (at 2 h post dose 8, read-out: plasma observed Cmax), the Cmax was 900 ± 400 nM. Besides, the CC50 in data set [5] was > 80 µM. Also, in data set [6], the “gross signs of toxicity” value is given as “no gross signs of toxicity” and the “width of the tibia epiphyseal growth plate vs vehicle controls” value was “significant (P < 0.05) increases”. Further, the “time to depletion in plasma to submicromolar concentrations” value in data set [7] (mice, after oral dosing) is 1 to 2 h. Also, in data set [7] (mice, single 30 mg/kg oral dose, through 12 h), the ileum tissue concentration is > 1 µM. In addition, the Kp in data set [7] (mice, single 30 mg/kg oral dose) worked out at 0.1.

Take `CCOc1ccc2cc(-c3nn(C4CCOCC4)c(N)c3C(N)=O)ccc2n1` [BKI-1841]: in data set [1], the “overall effect on locomotor activity” value is recorded as “depression in movement”, the distance traveled entry is “significant (P < 0.05) decrease”, the stereotypic horizontal activity result is on record as “significant (P < 0.05) decrease” and the vertical rearing activity result is on record as “significant (P < 0.05) decrease”. Further, in data set [2] (1 mg/kg BID for 3 days), the “total oocyst excretion reduction” value is “little reduction”. The “total oocyst excretion per day vs controls” value in data set [2] (1 mg/kg group) is recorded as “no significant difference”. For the same molecule, the “total oocyst excretion reduction” value in data set [2] (5 mg/kg BID for 3 days and 2 mg/kg BID given for 3 or 4 days) is 2 to 4 log. For the same molecule, the “total oocyst excretion per day vs controls” value in data set [2] (5 mg/kg and both 2 mg/kg groups) is “significant differences”. In addition, in data set [3] (1 mg/kg BID, last day of treatment), the predose plasma concentration worked out at 1.3 ± 0.1 µM. For the same molecule, in data set [3] (5 mg/kg BID, during the 3 days of dosing), the ataxia entry was “signs of ataxia”. For the same molecule, in data set [3] (all dosing regimens (5, 2, 1 mg/kg BID 3 days; 2 mg/kg QD 4 days)), the “hyperflexion of the limbs (dropped pasterns)” value was “all calves dosed with BKI-1841 showed signs of hyperflexion of the limbs seen as dropped pasterns”. For the same molecule, the safety index in data set [3] (dropped pasterns at lowest dose tested (1 mg/kg BID)) was < 1. In data set [6], the “gross signs of toxicity” value was “no gross signs of toxicity” and the “width of the tibia epiphyseal growth plate vs vehicle controls” value is “did not show significant increases”. The “blood chemistry and histology vs control animals” value in data set [6] (mice (data not shown)) is reported as “no abnormalities or indications of toxicity”. Besides, in data set [7] (for more than 6 h after a single 25 mg/kg dose in mice), the plasma exposure was > 1 µM. Further, the signs of toxicity result in data set [7] (mice, single 25 mg/kg dose) is listed as “no signs of toxicity”. Also, the Kp in data set [7] (mice, single 25 mg/kg oral dose, over 4 h) was determined as 0.27.
